Measurements as given in BindingDB's records for doi:10.1021/jm0005454 (Cnrs, 2002).

Experiments:
[1] = molecular target: T1, Angiotensin-converting enzyme (Rattus norvegicus, UniProt P47820); assay: In Vitro Inhibition of NEP
T1 sequence (P47820 whole entry): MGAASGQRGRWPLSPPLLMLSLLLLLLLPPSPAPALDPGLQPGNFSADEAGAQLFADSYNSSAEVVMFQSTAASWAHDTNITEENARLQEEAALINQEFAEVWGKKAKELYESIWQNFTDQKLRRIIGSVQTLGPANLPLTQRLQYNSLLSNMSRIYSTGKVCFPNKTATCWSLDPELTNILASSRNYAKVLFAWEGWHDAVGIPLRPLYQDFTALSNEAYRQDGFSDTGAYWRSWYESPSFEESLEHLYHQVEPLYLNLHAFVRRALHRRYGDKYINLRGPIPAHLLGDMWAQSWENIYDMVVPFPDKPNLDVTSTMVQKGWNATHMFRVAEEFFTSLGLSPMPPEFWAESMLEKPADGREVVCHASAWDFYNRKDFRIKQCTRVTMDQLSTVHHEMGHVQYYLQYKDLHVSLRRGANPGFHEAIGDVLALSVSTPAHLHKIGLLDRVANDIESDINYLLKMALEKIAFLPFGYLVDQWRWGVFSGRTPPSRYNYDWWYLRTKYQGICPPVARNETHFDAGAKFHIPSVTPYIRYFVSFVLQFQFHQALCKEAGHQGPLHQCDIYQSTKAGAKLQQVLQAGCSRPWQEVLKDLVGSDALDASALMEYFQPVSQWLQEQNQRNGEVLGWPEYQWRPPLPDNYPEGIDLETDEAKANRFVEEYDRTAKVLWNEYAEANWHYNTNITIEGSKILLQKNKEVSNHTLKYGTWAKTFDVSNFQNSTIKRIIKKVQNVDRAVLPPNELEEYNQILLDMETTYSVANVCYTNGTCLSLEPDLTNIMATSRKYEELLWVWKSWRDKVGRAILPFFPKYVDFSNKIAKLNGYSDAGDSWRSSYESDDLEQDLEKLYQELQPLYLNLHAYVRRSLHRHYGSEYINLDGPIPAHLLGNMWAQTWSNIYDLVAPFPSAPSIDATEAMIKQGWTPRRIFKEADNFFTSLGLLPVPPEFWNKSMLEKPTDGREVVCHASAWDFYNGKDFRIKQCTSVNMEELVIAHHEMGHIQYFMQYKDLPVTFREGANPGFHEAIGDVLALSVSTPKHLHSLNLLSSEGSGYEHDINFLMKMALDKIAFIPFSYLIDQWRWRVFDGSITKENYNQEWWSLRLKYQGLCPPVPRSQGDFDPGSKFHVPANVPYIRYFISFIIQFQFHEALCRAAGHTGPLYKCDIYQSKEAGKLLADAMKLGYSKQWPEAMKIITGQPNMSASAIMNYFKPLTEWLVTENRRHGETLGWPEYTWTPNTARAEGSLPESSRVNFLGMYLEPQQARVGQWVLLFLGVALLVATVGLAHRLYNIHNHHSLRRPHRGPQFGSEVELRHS
Protocol: (§1) NEP was preincubated in black 96-well microplates with or without increasing concentrations of inhibitors. DGPA was added, and the reaction was stopped after 1 hr of incubation. The fluorescence was measured at excitation wavelength = 340 nm, emission wavelength = 530 nm.

Neprilysin = molecular target: T2, Neprilysin (Oryctolagus cuniculus, UniProt P08049); assay: In Vitro Inhibition of NEP; settings: pH 7.4; 37 °C
T2 sequence (P08049 whole entry): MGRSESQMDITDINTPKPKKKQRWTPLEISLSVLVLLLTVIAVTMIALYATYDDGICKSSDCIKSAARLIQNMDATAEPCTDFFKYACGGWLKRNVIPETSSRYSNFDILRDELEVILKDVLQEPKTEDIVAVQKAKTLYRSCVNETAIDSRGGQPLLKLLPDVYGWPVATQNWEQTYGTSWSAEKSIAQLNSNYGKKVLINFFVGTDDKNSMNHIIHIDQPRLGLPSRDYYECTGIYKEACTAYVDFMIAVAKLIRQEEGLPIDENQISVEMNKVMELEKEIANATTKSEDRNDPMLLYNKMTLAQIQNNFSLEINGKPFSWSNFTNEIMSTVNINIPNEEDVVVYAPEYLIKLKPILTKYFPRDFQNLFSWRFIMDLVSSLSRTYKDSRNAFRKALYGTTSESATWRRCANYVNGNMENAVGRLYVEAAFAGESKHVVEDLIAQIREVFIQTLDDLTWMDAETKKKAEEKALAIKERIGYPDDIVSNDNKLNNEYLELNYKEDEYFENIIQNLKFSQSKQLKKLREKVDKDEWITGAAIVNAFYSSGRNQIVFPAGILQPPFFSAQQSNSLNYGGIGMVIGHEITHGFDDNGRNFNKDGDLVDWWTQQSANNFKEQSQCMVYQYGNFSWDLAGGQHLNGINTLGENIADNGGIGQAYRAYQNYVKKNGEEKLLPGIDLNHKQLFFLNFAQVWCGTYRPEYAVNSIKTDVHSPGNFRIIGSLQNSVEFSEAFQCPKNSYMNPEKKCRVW
Protocol: as §1

Work on `O=C(O)[C@H](Cc1c[nH]c2ccccc12)NC(=O)[C@@H](CS)[C@@H]1CCCc2ccccc21` [(2S)-3-(1H-indol-3-yl)-2-[(2S)-3-sulfanyl-2-[(1S)-1,2,3,4-tetrahydronaphthalen-1-yl]propanamido]propanoic acid] yielded a Ki [1] of 26 nM and a Ki (Neprilysin) of 8 nM.
